# In patent publication US20190284192A1, “NITROGENOUS MACROCYCLIC COMPOUND, PREPARATION METHOD THEREFOR, PHARMACEUTICAL COMPOSITION AND APPLICATION THEREOF” (LUOXIN PHARMACEUTICAL (SHANGHAI) CO., LTD., priority 2016, published 2019):
# System: MYC mRNA expression in MV-4-11 xenograft tumor
# Experiment: PKPD of compound 4009 in MV-4-11 subcutaneous xenograft (MYC mRNA by RT-qPCR)
# Format: in vivo, BALB/c nude mice
# Settings: 15 mg/kg single dose intragastric; 1, 2, 4, 6, 8, 24 h
# Method: Cell Culture MV-4-11 (purchased from ATCC, CRL-9591) cells were single-layer-cultured in vitro, culture condition is IMDM medium supplemented with 10% heat-inactivated fetal bovine serum and 1% penicillin-streptomycin double antibody, at 37° C., 5% CO2. According to the growth of the cells, the treatment was passaged twice a week. When the cells are in the exponential growth phase, the cells are collected, counted, and inoculated.
# Experimental protocol: 0.2 mL of cell suspension containing about […] cells (cell suspended in IMDM medium and added with 50% Matrigel) was inoculated subcutaneously into the right back of each mouse. […] Grouping method: animals were weighed before dosing and tumor volume was measured. […]
# Preparation of cDNA: The concentration of RNA (NanaDrop2000) was determined, 2 μg RNA was used as a template for reverse transcription, and cDNA preparation (RT-PCR) was performed using a High Capacity cDNA Reverse Transcription Kit.
# Quantitative amplification of the target gene: Real-time qPCR amplification was performed using TaqMan fluorescent probe and cDNA as a template. […] The reaction system was separately added to a 384-well plate, and each sample of the target gene and the comparative gene was measured for three replicate wells, and the reaction was run on a prepared 384-well plate instrument (ABI ViiA7).
compound,measurement,value
"CCS(=O)(=O)Cc1ccc2c(c1)-c1cn(C)c(=O)cc1CN=C2c1ccc(F)cc1 [Compound 4009, 7-(4-fluorophenyl)-2-methyl-10-(ethylsulfonemethyl)-2H-benzo[c]pyrido[3,4-e]azepin-3(5H)-ketone]",inhibition of the expression level of MYC mRNA in the tumor versus concentration of the drug in the tumor,good correlation
